Laboratory results taken from ChEMBL document CHEMBL3734705, “Synthesis and in vitro cytotoxicity of novel C-12 substituted-14-deoxy-andrographolide derivatives as potent anti-cancer agents” (2015).

Assays:
[1] = Cytotoxicity against human RPMI8226 cells assessed as growth level at 10 uM after 48 hrs by SRB assay; format: functional, RPMI-8226
[2] = Cytotoxicity against human HOP62 cells assessed as growth level at 10 uM after 48 hrs by SRB assay; format: functional, HOP-62
[3] = Cytotoxicity against human SW620 cells assessed as growth level at 10 uM after 48 hrs by SRB assay; format: functional, SW-620
[4] = Cytotoxicity against human SF268 cells assessed as growth level at 10 uM after 48 hrs by SRB assay; format: functional, SF-268
[5] = Cytotoxicity against human SNB19 cells assessed as growth level at 10 uM after 48 hrs by SRB assay; format: functional, SNB-19
SK-MEL-5 = assay: Cytotoxicity against human SK-MEL-5 cells assessed as growth level at 10 uM after 48 hrs by SRB assay; format: functional
[6] = Cytotoxicity against human UACC257 cells assessed as growth level at 10 uM after 48 hrs by SRB assay; format: functional, UACC-257
[7] = Cytotoxicity against human OVCAR8 cells assessed as growth level at 10 uM after 48 hrs by SRB assay; format: functional, OVCAR-8
[8] = Cytotoxicity against human NCI-ADR-RES cells assessed as growth level at 10 uM after 48 hrs by SRB assay; format: functional
A498 = assay: Cytotoxicity against human A498 cells assessed as growth level at 10 uM after 48 hrs by SRB assay; format: functional
[9] = Cytotoxicity against human HL-60(TB) cells assessed as growth inhibition at 10 uM after 48 hrs by SRB assay; format: functional; settings: HL-60, 48 h, read-out: GI
[10] = Cytotoxicity against human MOLT4 cells assessed as growth inhibition at 10 uM after 48 hrs by SRB assay; format: functional; settings: MOLT-4, 48 h, read-out: GI
NCI-H23 = assay: Cytotoxicity against human NCI-H23 cells assessed as growth inhibition at 10 uM after 48 hrs by SRB assay; format: functional; settings: NCI-H23, 48 h, read-out: GI
[11] = Cytotoxicity against human HCT116 cells assessed as growth inhibition at 10 uM after 48 hrs by SRB assay; format: functional; settings: HCT-116, 48 h, read-out: GI
HT-29 = assay: Cytotoxicity against human HT-29 cells assessed as growth inhibition at 10 uM after 48 hrs by SRB assay; format: functional; settings: HT-29, 48 h, read-out: GI
[12] = Cytotoxicity against human LOXIMVI cells assessed as growth inhibition at 10 uM after 48 hrs by SRB assay; format: functional; settings: LOX IMVI, read-out: GI
Malme-3M = assay: Cytotoxicity against human MALME-3M cells assessed as growth inhibition at 10 uM after 48 hrs by SRB assay; format: functional; settings: read-out: GI
M14 = assay: Cytotoxicity against human M14 cells assessed as growth inhibition at 10 uM after 48 hrs by SRB assay; format: functional; settings: M14, 48 h, read-out: GI
[13] = Cytotoxicity against human UACC62 cells assessed as growth inhibition at 10 uM after 48 hrs by SRB assay; format: functional; settings: UACC-62, 48 h, read-out: GI
[14] = Cytotoxicity against human RXF393 cells assessed as growth inhibition at 10 uM after 48 hrs by SRB assay; format: functional; settings: RXF 393, 48 h, read-out: GI
[15] = Cytotoxicity against human TK10 cells assessed as growth inhibition at 10 uM after 48 hrs by SRB assay; format: functional; settings: TK-10, 48 h, read-out: GI
[16] = Cytotoxicity against human UO31 cells assessed as growth inhibition at 10 uM after 48 hrs by SRB assay; format: functional; settings: UO-31, 48 h, read-out: GI
[17] = Cytotoxicity against human PC3 cells assessed as growth inhibition at 10 uM after 48 hrs by SRB assay; format: functional; settings: PC-3, 48 h, read-out: GI
MDA-MB-231 = assay: Cytotoxicity against human MDA-MB-231 cells assessed as growth inhibition at 10 uM after 48 hrs by SRB assay; format: functional; settings: MDA-MB-231, 48 h, read-out: GI
[18] = Cytotoxicity against human Hs578T cells assessed as growth inhibition at 10 uM after 48 hrs by SRB assay; format: functional; settings: Hs-578T, read-out: GI
[19] = Cytotoxicity against human BT549 cells assessed as growth inhibition at 10 uM after 48 hrs by SRB assay; format: functional; settings: BT-549, 48 h, read-out: GI
T47D = assay: Cytotoxicity against human T47D cells assessed as growth inhibition at 10 uM after 48 hrs by SRB assay; format: functional; settings: read-out: GI
K562 = assay: Cytotoxicity against human K562 cells assessed as growth level at 10 uM after 48 hrs by SRB assay; format: functional

Compound	Activity [1] [%]	Activity [2] [%]	Activity [3] [%]	Activity [4] [%]	Activity [6] [%]	Activity [7] [%]	Activity [8] [%]	Activity (A498) [%]	inhibition of growth at 10 µM [9] [%]	inhibition of growth at 10 µM [10] [%]	inhibition of growth at 10 µM (NCI-H23) [%]	inhibition of growth at 10 µM [11] [%]	inhibition of growth at 10 µM [12] [%]	inhibition of growth at 10 µM (Malme-3M) [%]	inhibition of growth at 10 µM (M14) [%]	inhibition of growth at 10 µM [13] [%]	inhibition of growth at 10 µM [14] [%]	inhibition of growth at 10 µM [16] [%]	inhibition of growth at 10 µM [17] [%]	inhibition of growth at 10 µM (MDA-MB-231) [%]	also measured
C=C1CC[C@@H]2[C@](C)(COC(C)=O)[C@H](OC(C)=O)CC[C@@]2(C)[C@@H]1CC(NCCCCCCCC)C1=CCOC1=O (mixture of isomers)	35.98	91.97	72.43	67.83	61.1	70.96	87.68	64.34	41.1	63.5	29.2	64.1	46.1	15.8	24.1	52.3	14.3	43.9	66.4	29.2	Activity [5]: 78.29%; Activity (SK-MEL-5): 50.57%; inhibition of growth at 10 µM (HT-29): 29.5%; inhibition of growth at 10 µM [15]: 17.3%; inhibition of growth at 10 µM [18]: 16.9%; inhibition of growth at 10 µM [19]: 30.4%; inhibition of growth at 10 µM (T47D): 42%; Activity (K562): 34.66%
C=C1CC[C@@H]2[C@](C)(COC(C)=O)[C@H](OC(C)=O)CC[C@@]2(C)[C@@H]1CC(NCc1ccccc1)C1=CCOC1=O (mixture of isomers)	3.18	89.01	47.31	62.15	32.81	28.22	23.47	56.22	9.93	3.86	42.6	57.7	55.4	22.9	57.9	61.2	25.7	70.9	89.9	35.3	Activity [5]: 68.18%; inhibition of growth at 10 µM [18]: 13.6%; inhibition of growth at 10 µM [19]: 71.9%; inhibition of growth at 10 µM (T47D): 85.8%; Activity (K562): 24.65%
C=C1CC[C@@H]2[C@](C)(COC(C)=O)[C@H](OC(C)=O)CC[C@@]2(C)[C@@H]1CC(NC1CCCC1)C1=CCOC1=O (some centres undefined)	37.5	94.41	67.48	76.66	38.37	53.68	68.47	68	57.3	57.6	37.5	55.3	31.5	15.4	20.9	34.4	22	43.9	55.3	19.6	Activity (SK-MEL-5): 34.29%; inhibition of growth at 10 µM (HT-29): 24.5%; inhibition of growth at 10 µM [15]: 12.9%; inhibition of growth at 10 µM [18]: 25.1%; inhibition of growth at 10 µM [19]: 44.4%; inhibition of growth at 10 µM (T47D): 49.1%; Activity (K562): 48.3%
C=C1CC[C@@H]2[C@](C)(COC(C)=O)[C@H](OC(C)=O)CC[C@@]2(C)[C@@H]1CC(NCc1cccc(Cl)c1)C1=CCOC1=O (mixture of isomers)	27.25	56	38.27	53.28	25.21	42.73	60.33	64.78	78.4	78.1	47.3	64.1	87.3	23.9	45	58.8	49.5	53.1	69.9	35	Activity [5]: 55.56%; inhibition of growth at 10 µM (HT-29): 74.5%; inhibition of growth at 10 µM [15]: 36.7%; inhibition of growth at 10 µM [18]: 5.65%; inhibition of growth at 10 µM [19]: 50.3%; inhibition of growth at 10 µM (T47D): 49.3%; Activity (K562): 18.48%
C=C1CC[C@@H]2[C@](C)(COC(C)=O)[C@H](OC(C)=O)CC[C@@]2(C)[C@@H]1CC(NCc1ccc(F)cc1)C1=CCOC1=O (mixture of isomers)	1.27	78.73	32.04	62.59	45.84	18.62	28.29	51.71	9.52	0.37	42.1	66.3	90.7	34.9	62.7	67.8	19.4	68.7	79.2	39.1	Activity (SK-MEL-5): 11.81%; inhibition of growth at 10 µM (HT-29): 78.7%; inhibition of growth at 10 µM [15]: 33.4%; inhibition of growth at 10 µM [18]: 27.5%; inhibition of growth at 10 µM [19]: 71.3%; inhibition of growth at 10 µM (T47D): 73.4%; Activity (K562): 18.84%
